Assay results as given in patent US20250276120A1, “METHOD FOR PREVENTING COAGULATION IN PATIENTS WITH IMPLANTED CARDIAC DEVICES” (Cadrenal Therapeutics, Inc., priority 2024, published 2025).
Where two headings read alike, the source gives them in different places.

Experiments:
[1] = human, in vivo
[2] = tested on: cytochrome P450 system; settings: cited from earlier work
[3] = pharmacokinetic study with fluconazole (CYP2C9 inhibitor) co-administration in healthy volunteers; settings: fluconazole co-administered
[4] = target: T1, human carboxylesterase 2 (hCE-2) (Homo sapiens, UniProt O00748); settings: cited from earlier work
T1 sequence (O00748 27-559): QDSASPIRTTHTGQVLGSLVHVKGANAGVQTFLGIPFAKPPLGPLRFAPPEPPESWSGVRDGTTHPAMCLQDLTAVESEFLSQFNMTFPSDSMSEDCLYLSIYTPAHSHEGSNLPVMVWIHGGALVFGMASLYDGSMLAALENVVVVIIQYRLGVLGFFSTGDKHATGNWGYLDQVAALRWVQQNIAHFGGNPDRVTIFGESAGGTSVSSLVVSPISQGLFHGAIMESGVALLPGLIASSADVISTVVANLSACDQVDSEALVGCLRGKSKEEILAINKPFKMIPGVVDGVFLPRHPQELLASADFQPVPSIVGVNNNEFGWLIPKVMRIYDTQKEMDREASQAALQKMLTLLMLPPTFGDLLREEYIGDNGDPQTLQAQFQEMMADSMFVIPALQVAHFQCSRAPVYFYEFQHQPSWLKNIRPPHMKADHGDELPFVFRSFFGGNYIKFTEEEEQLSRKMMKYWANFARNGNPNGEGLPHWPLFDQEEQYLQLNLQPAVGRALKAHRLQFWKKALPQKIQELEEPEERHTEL

[5] = Phase 2/3 randomized, double-blind, active-control study tecarfarin versus warfarin, TTR as primary efficacy endpoint; format: in vivo, human
[6] = time-within-therapeutic range (TTR), supporting clinical data; format: in vivo, human; settings: stable anticoagulation with tecarfarin
From the text: Tecarfarin is not metabolized via the cytochrome P450 system, but rather via an alternate pathway and enzyme (h-CE2) that is abundant throughout the body and essentially insaturable. Tecarfarin has a reliable and stable PK profile and PD response (anticoagulation), a well-understood mechanism of action (similar to other VKAs), with supporting clinical data.

[7] = aspirin added to warfarin, patients with atrial fibrillation already on warfarin; cited from earlier work

For `CC(=O)CC(c1ccccc1)c1c(O)c2ccccc2oc1=O` (racemic) [warfarin], the “effect of CKD on the effect of CYP2C9 genetic variation on exposure” value [1] is listed as “significantly increased”, the “mean plasma concentrations in subjects with CKD versus healthy subjects” value [1] is listed as “significantly higher” and the “metabolism by the cytochrome P450 system” value [2] is listed as “metabolized by multiple different isoenzymes of the cytochrome P450 system (primarily CYP2C9, CYP1A2 and CYP3A4)”.

For `CC(=O)C[C@@H](c1ccccc1)c1c(O)c2ccccc2oc1=O` [(S)-warfarin, reference compound], the “mean plasma concentrations in subjects with CKD versus healthy subjects” value (CKD versus healthy subjects) was “significantly higher”, the “effect of CKD on the effect of CYP2C9 genetic variation on exposure” value (CKD, CYP2C9 genotype) was “significantly increased” and the “effect of fluconazole co-administration on drug exposure” value [3] was “significantly prolonged”.

For `CC(=O)C[C@H](c1ccccc1)c1c(O)c2ccccc2oc1=O` [R-warfarin], the “effect of fluconazole co-administration on drug exposure” value [3] was “significantly prolonged”.

In the case of `CC(OC(=O)c1ccc(Cc2c(O)c3ccccc3oc2=O)cc1)(C(F)(F)F)C(F)(F)F` [Tecarfarin, 1,1,1,3,3,3-hexafluoro-2-methyl-2-propanyl 4-[(4-hydroxy-2-oxo-2H-chromen-3-yl)methyl] benzoate], the “change of elimination half-life (t1/2) in CKD” value (CKD versus healthy subjects) is listed as “decreased”, the “mean plasma concentrations in subjects with CKD versus healthy subjects” value (CKD versus healthy subjects) is listed as “not significantly higher” and the “metabolic pathway (carboxylesterase)” value [4] is listed as “hydrolysis via by human carboxylesterase 2 (hCE-2)”. The “TTR on tecarfarin compared to warfarin” value ([5]; CYP2C9 genotypic variants on CYP2C9 inhibitors, small number of subjects) was “higher”, the “percent of time-within-therapeutic-range (TTR), tecarfarin versus warfarin” value ([5]; general population requiring chronic oral anticoagulation, blinded treatment) was “did not differ significantly” and the “TTR, tecarfarin versus warfarin” value ([5]; subjects with CYP2C9 wild type genotype) was “significant improvement”. The “effect of fluconazole co-administration on PK” value [3] was “unaffected”, the “time-within-therapeutic range (TTR)” value [6] was over 72% and the “metabolism by the cytochrome P450 system” value [2] was “does not proceed via the cytochrome P450 system”.

For `CC(=O)Oc1ccccc1C(=O)O` [aspirin], the “incremental rate of major bleeding” value [7] is listed as 1.6 % per year.
